Assay results taken from patent publication USRE46604E1, “Treatment of circadian rhythm disorders” (VANDA PHARMACEUTICALS, INC., priority 2012, dated 2017).
Read-outs that look alike come from different tables or passages of the source.

Columns and labels:
[1] = Effect of smoking on pharmacokinetics; assay type: in vivo, human; conditions: for Vd/F: read-out: Vz/F; for half-life: read-out: t½ (converted)
Source text: Smokers were defined as those smoking 10 or more cigarettes per day. Non-smokers were defined as those smoking no cigarettes per day.

[2] = target: MT1R (Homo sapiens, UniProt P48039); test: Melatonin receptor MT1R affinity; assay type: binding
[3] = target: T1, MT2R (Homo sapiens, UniProt P49286); test: Melatonin receptor MT2R affinity; assay type: binding
T1 sequence (P49286 1-362): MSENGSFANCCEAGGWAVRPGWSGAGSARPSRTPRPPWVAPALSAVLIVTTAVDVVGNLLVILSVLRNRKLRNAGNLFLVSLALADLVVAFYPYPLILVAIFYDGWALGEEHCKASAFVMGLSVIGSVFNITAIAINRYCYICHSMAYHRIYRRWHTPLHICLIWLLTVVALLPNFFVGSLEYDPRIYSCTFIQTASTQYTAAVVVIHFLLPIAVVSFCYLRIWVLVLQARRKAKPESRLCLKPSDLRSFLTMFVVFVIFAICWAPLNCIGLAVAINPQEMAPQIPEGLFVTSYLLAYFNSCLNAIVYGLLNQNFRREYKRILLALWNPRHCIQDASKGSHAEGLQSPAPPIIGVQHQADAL

[4] = system: Non-24 patients; test: Entrainment by baseline peak aMT6s and beta blocker status (clinical studies); assay type: in vivo, humans
Description: A useful protocol for estimating tau in candidates for clinical testing for treatment of Non-24, which method can be applied to diagnosis of Non-24 in a given patient, is as follows: • Each subject will undergo four 48-hour urine collection sessions at nominal days 7, 14, 21, and 28. During each session, the start of the session and the time of each void will be recorded. Urine collected over periods of 4 hours (with the first 4 hour collection period of the day beginning at scheduled wake time), or about 8 hours during sleep, will be pooled (the “collection interval”); thus, subjects will have a total of 10 urine collection intervals during each 48-hour period. A study nurse will determine the volume of urine collected during each interval (urine will be transferred to a graduated cylinder) and an aliquot will be assayed for aMT6s. • For each collection interval, the start and end time of the interval will be used to determine the midpoint and duration of the interval. The start time of a given interval is defined as the last void time from the prior 4 hour (or 8 hour) collection interval; the end time of a given interval is defined as the last void time within the collection interval. • The mass of the primary melatonin metabolite (aMT6s) excreted during the interval will be determined as the product of aMT6s concentration and volume of urine. Rate of aMT6s excretion will be determined as the mass of aMT6s excreted divided by the duration of the interval. […] For screening there will be occasions when the 4 different weeks that urine collections are conducted will span a change in the clock time. Therefore, all urine collection times will be automatically translated into local standard time for calculations and then translated back to DST for reporting purposes, if appropriate. • In certain situations, urine collections or their recording will be incomplete. The following procedures will be invoked to address this: • 1. If a subject fails to timestamp a void, no action will be taken if there are multiple voids with timestamps within one interval. • 2. If there is only one void in a collection interval, and the patient cannot recall the time of the void then the entire 48 hour collection period will be excluded from the analysis and the subject will be requested to collect an additional 48 hours of urine after Day 28. It would not be possible to accurately determine to which collection interval the unmarked urine belongs. Consequently, the appropriate assignment of start and stop times to all of the collection intervals would be questionable. • 3. If a void is discarded by the patient but the time of the void is known, duration associated with that void (time of the void minus the time of the previous void) will be subtracted from the total duration associated with that interval. This modified duration will be used to calculate rate of aMT6s excretion. If a discarded sample is either the first or last of the samples in an interval, the midpoint of that interval will be calculated without considering that sample. • 4. If fewer than 4 samples are available for one 48-hour collection session, fitting of the cosine will be compromised (inadequate degrees of freedom). Consequently, acrophase will not be determined if fewer than four samples are available. • For each session, acrophase will be determined by fitting a cosine to the data from that session using unweighted non-linear regression. Fitting will be performed using a non-linear least squares fitting algorithm. The fitting process will estimate phase shift, mesor, and amplitude and their respective standard errors; period of the cosine will be fixed to 24 hours.* • Acrophase will be determined as the phase shift modulus 24 hours. • If acrophase values are available for three or more sessions, tau will be calculated using the following procedure: • 1. Acrophase will be recalculated relative to day 0 (24·start day for each session+acrophase). • 2. […]

[5] = Fluvoxamine co-administration pharmacokinetic study; assay type: in vivo, human
Description: Twenty-four healthy male or female subjects between the ages of 18 and 55 years of age (inclusive) who were non-smokers with a body mass index (BMI) of ≧18 and ≦35 kg/m2 participated in this open-label, single-sequence study conducted at one site. On day 1, subjects were administered 5.667 mg of tasimelteon.

[6] = tmax as stated in text; conditions: in vivo
[7] = Smokers (10 or more cigarettes per day)
[8] = both sexes, human, in vivo, Day 1: 5.667 mg tasimelteon alone
[9] = compared to tasimelteon administered alone
[10] = human, in vivo, Smokers (10 or more cigarettes per day)

Sequence of MT1R (P48039 whole entry): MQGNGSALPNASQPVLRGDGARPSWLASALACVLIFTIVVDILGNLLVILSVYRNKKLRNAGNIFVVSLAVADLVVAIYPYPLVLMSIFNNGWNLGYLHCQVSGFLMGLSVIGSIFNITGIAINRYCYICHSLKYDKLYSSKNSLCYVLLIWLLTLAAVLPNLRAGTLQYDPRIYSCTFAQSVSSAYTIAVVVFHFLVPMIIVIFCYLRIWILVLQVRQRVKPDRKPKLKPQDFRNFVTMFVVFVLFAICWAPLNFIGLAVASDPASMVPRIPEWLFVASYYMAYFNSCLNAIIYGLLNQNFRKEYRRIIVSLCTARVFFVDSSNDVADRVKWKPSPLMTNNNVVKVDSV

For CCC(=O)NCC1CC1c1cccc2c1C(O)CO2 (centres unmarked) [M14], which “AUC (inf)” value [1, 7] is on record?
Its value is 9.45 ± 11.88 h x ng/mL.

What about the Tmax [1, 7] of the same compound?
The Tmax was 45 min.

With CCC(=O)NC[C@@H]1C[C@H]1c1cccc2c1CCO2 (relative stereo) [Tasimelteon, trans-N-[[2-(2,3-dihydrobenzofuran-4-yl)cycloprop-1yl]methyl]propanamide] as the compound, how does the Ki [2] read?
Its Ki is 0.3 to 0.4 nM.

And the Ki [3]?
The Ki was 0.1 to 0.2 nM.

And the “Entrained, percent of patients” value ([4]; Peak aMT6s <1500 ng/hr)?
Its value is 41%.

What about the “Non-entrained, percent of patients” value ([4]; Peak aMT6s <1500 ng/hr) of the same compound?
Its value is 59%.

What about the “Entrained, percent of patients” value ([4]; Peak aMT6s <2000 ng/hr) of the same compound?
Its value is 38%.

And the “Non-entrained, percent of patients” value ([4]; Peak aMT6s <2000 ng/hr)?
The value was 62%.

What about the “Entrained, percent of patients” value ([4]; Peak aMT6s ≧1500 ng/hr) of the same compound?
The value was 67%.

What about the “Non-entrained, percent of patients” value ([4]; Peak aMT6s ≧1500 ng/hr) of the same compound?
The value was 33%.

What about the “Entrained, percent of patients” value ([4]; Peak aMT6s ≧2000 ng/hr) of the same compound?
Its value is 85%.

And the “Non-entrained, percent of patients” value ([4]; Peak aMT6s ≧2000 ng/hr)?
Its value is 15%.

What about the “Entrained, percent of patients” value ([4]; Peak aMT6s: All) of the same compound?
The value was 51%.

What about the “Non-entrained, percent of patients” value ([4]; Peak aMT6s: All) of the same compound?
The value was 49%.

And the AUC(0-inf) [5, 8]?
Its AUC(0-inf) is 102 ± 61.5 ng·h/mL.

And the Cmax [5, 8]?
Its Cmax is 68 ± 28.9 ng/mL.

And the Tmax [5, 8]?
Its Tmax is 30 min.

And the half-life ([5]; both sexes, human, in vivo, Day 1: 5.667 mg tasimelteon alone, read-out: t½ (converted))?
Its half-life is 72 ± 13.2 min.

And the “increase of AUC0-inf upon co-administration of fluvoxamine” value [5, 9]?
Its value is “approximately 7 fold”.

What about the “increase of Cmax upon co-administration of fluvoxamine” value [5, 9] of the same compound?
Its value is “approximately 2 fold”.

What about the AUC(0-inf) ([1]; human, in vivo, Non-Smokers) of the same compound?
The AUC(0-inf) was 389 ± 429 ng·h/mL.

What about the Cmax ([1]; human, in vivo, Non-Smokers) of the same compound?
Its Cmax is 239 ± 177 ng/mL.

What about the Tmax ([1]; human, in vivo, Non-Smokers, read-out: Tmax) of the same compound?
Its Tmax is 30 min.

And the Vd/F ([1]; human, in vivo, Non-Smokers)?
The Vd/F was 133 ± 83 L.

And the half-life ([1]; human, in vivo, Non-Smokers)?
The half-life was 70.8 ± 27.6 min.

And the AUC(0-inf) [1, 10]?
Its AUC(0-inf) is 205 ± 152 ng·h/mL.

And the Cmax [1, 10]?
Its Cmax is 136 ± 59.5 ng/mL.

And the Tmax ([1]; human, in vivo, Smokers (10 or more cigarettes per day), read-out: Tmax)?
Its Tmax is 45 min.

What about the Vd/F [1, 10] of the same compound?
The Vd/F was 189 ± 94.2 L.

What about the half-life [1, 10] of the same compound?
The half-life was 59.4 ± 10.8 min.

What about the Tmax [6] of the same compound?
Its Tmax is “approximately one-half”.

With CCC(=O)NC[C@@H]1CC1c1cccc(O)c1CC(=O)O (some centres unmarked) [M11] as the compound, how does the AUC(0-inf) [5, 8] read?
Its AUC(0-inf) is 104 ± 30 ng·h/mL.

With CCC(=O)NC[C@@H]1CC1c1cccc(O)c1CCO (some centres unmarked) [M9] as the compound, how does the AUC(0-inf) [5, 8] read?
The AUC(0-inf) was 44.5 ± 17.2 ng·h/mL.

Which “AUC (inf)” value [1, 7] does the source give for CCC(=O)NCC1CC1c1cccc2c1C(O)CO2 (centres unmarked) [M12] here?
The value was 526 ± 193 h x ng/mL.

What about the Tmax [1, 7] of the same compound?
The Tmax was 60 min.
